From patent US9346818B2 (priority 2012, dated 2016) come the findings set out here.

As a reminder, the IC50 is the concentration needed to halve the response being measured.

Assay [1] has as its system learning and memory disorder of mice induced by scopolamine. Nature of the assay: Morris water maze test, senile dementia mice model induced by scopolamine. The class given is in vivo. The note with it: for effect on learning and memory disorder of mice induced by scopolamine: Morris water maze, in comparison with model group / donepezil hydrochloride group; for latent period day 1 / latent period day 2 / latent period day 3 / latent period day 4 / latent period day 5 / times of crossing platform: scopolamine 1 mg/kg.

For assay [2], the target named is acetylcholinesterase (Homo sapiens (Human), UniProt P22303). Kind of assay: biochemical. The class given is biochemical. The note with it: for potency on acetylcholinesterase compared with positive control drug donepezil hydrochloride: in vitro, enzymology level.
Setting [3] is: modified Ellman method, read-out: IC50 (nM), inhibition activity on acetylcholinesterase.

“Also recorded” adds a separate entry of the source. Like-named read-outs stand apart in the source and are kept apart here.

acetylcholinesterase, sequence (P22303 32-614, species assumed): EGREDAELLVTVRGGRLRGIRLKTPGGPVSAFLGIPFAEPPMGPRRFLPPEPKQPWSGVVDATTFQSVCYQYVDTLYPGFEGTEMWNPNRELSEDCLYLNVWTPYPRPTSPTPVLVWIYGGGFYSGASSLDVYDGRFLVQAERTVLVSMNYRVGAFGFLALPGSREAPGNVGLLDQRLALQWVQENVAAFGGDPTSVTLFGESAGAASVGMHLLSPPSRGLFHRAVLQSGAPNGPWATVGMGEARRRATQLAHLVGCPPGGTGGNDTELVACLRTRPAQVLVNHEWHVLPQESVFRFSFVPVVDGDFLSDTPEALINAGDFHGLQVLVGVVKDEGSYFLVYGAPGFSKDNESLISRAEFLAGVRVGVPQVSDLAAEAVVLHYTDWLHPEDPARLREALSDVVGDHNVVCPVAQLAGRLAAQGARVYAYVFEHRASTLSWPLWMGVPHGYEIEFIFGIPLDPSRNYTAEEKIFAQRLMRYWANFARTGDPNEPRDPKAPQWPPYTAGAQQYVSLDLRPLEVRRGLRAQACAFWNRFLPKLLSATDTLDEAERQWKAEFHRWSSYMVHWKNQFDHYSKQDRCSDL

As for `O=C1c2cc3c(cc2C(=O)N1CCC1CCN(Cc2cccc(F)c2)CC1)OCO3` [Compound I-3, 6-[2-[1-[(3-fluorophenyl)methyl]-4-piperidyl]ethyl]-[1,3]dioxolo[4,5-f]isoindole-5,7-dione], the “effect on learning and memory disorder of mice induced by scopolamine” value (from here on “effect on learning and memory disorder”) in assay [1] is listed as “decreases significantly”. In addition, in assay [1] (Table 3, 5 mg/kg intragastric), the “latent period day 1” value is on record as 56.5 ± 8.5 s, the “latent period day 2” value turned out to be 56.5 ± 8.6 s, the “latent period day 3” value is 60 ± 0 s and the “latent period day 4” value is 43.9 ± 15.4 s. Also, in assay [1] (Table 3, 5 mg/kg intragastric), the “latent period day 5” value stood at 34.0 ± 19.5 s and the “times of crossing platform” value came out at 1.9 ± 1.5. In assay [1] (Table 3, 10 mg/kg intragastric), the “latent period day 1” value is listed as 59.3 ± 2.6 s, the “latent period day 2” value turned out to be 56.3 ± 9.7 s, the “latent period day 3” value is recorded as 55.5 ± 9.5 s and the “latent period day 4” value was 49.4 ± 15.7 s. In assay [1] (Table 3, 10 mg/kg intragastric), the “latent period day 5” value was found to be 45.0 ± 15.0 s and the “times of crossing platform” value is 1.1 ± 1.1. The “potency on acetylcholinesterase compared with positive control drug donepezil hydrochloride” value in assay [2] was “slightly lower potency than the positive control drug”. In assay [2] (setting [3]), the 50% inhibitory concentration (IC50) worked out at 269 nM.

For the compound `O=C1c2cc3c(cc2C2(CC2)N1CCC1CCN(Cc2cccc(F)c2)CC1)OCO3` [Compound I-19, 6-[2-[1-[(3-fluorophenyl)methyl]-4-piperidyl]ethyl]spiro[[1,3]dioxolo[4,5-f]isoindole-7,1′-cyclopropane]-5-one], in assay [1], the “effect on learning and memory disorder” value is “can improve the learning and memory disorder of the animals induced by scopolamine”. Moreover, in assay [1] (Table 2, 5 mg/kg intragastric), the “latent period day 1” value turned out to be 60 ± 0 s, the “latent period day 2” value is recorded as 60 ± 0 s, the “latent period day 3” value was 55.2 ± 11.8 s and the “latent period day 4” value was determined as 57.3 ± 10.4 s. In assay [1] (Table 2, 5 mg/kg intragastric), the “latent period day 5” value was 53.9 ± 12.4 s and the “times of crossing platform” value came out at 0.8 ± 1.4. For the same compound, the “potency on acetylcholinesterase compared with positive control drug donepezil hydrochloride” value in assay [2] is given as “even lower”. The IC50 in assay [2] (setting [3]) was 376 nM.

In the case of `O=C1c2cc3c(cc2C2(CC2)N1CCC1CCN(Cc2ccccc2)CC1)OCO3` [Compound I-17, 6-[2-(1-benzyl-4-piperidyl)ethyl]spiro[[1,3]dioxolo[4,5-f]isoindole-7,1′-cyclopropane]-5-one], the “effect on learning and memory disorder” value in assay [1] is “superior to the donepezil hydrochloride group; also recorded: had the effect of improving the learning and memory disorder of mice induced by scopolamine; also recorded: stronger effects of improving learning and memory”. Further, in assay [1] (Table 2, 5 mg/kg intragastric), the “latent period day 1” value came to 56.8 ± 8.6 s, the “latent period day 2” value is given as 60 ± 0 s, the “latent period day 3” value is recorded as 48.7 ± 15.7 s and the “latent period day 4” value came to 56.7 ± 8.1 s. Further, in assay [1] (Table 2, 5 mg/kg intragastric), the “latent period day 5” value was 47.2 ± 13.4 s and the “times of crossing platform” value is reported as 1.8 ± 2.5. In addition, in assay [1] (Table 6, 5 mg/kg intragastric), the “latent period day 1” value was 57.3 ± 6.7 s, the “latent period day 2” value came out at 56.3 ± 9.1 s, the “latent period day 3” value turned out to be 52.5 ± 10.4 s and the “latent period day 4” value is recorded as 46.4 ± 16.6 s. In assay [1] (Table 6, 5 mg/kg intragastric), the “latent period day 5” value is recorded as 43.7 ± 11.8 s and the “times of crossing platform” value is reported as 2.00 ± 1.41. In addition, in assay [1] (Table 6, 10 mg/kg intragastric), the “latent period day 1” value was 59.9 ± 0.3 s, the “latent period day 2” value amounted to 58.1 ± 6.2 s, the “latent period day 3” value worked out at 51.1 ± 12.0 s and the “latent period day 4” value is reported as 42.1 ± 15.5 s. Besides, in assay [1] (Table 6, 10 mg/kg intragastric), the “latent period day 5” value worked out at 39.3 ± 16.7 s and the “times of crossing platform” value amounted to 2.60 ± 1.96. In assay [2] (IC50 (nM), inhibition activity on acetylcholinesterase, modified Ellman method), this compound returned a 50% inhibitory concentration (IC50) of 202 nM. Besides, the “potency on acetylcholinesterase compared with positive control drug donepezil hydrochloride” value in assay [2] is on record as “slightly lower potency than the positive control drug; also recorded: comparable inhibition activity on acetylcholinesterase with donepezil hydrochloride”.

Consider `O=C1c2cc3c(cc2C2(CC2)N1CCC1CCN(Cc2ccncc2)CC1)OCO3` [Compound I-31, 6-[2-[1-(4-pyridylmethyl)-4-piperidyl]ethyl]spiro[[1,3]dioxolo[4,5-f]isoindole-7,1′-cyclopropane]-5-one], for which, in assay [2], the “potency on acetylcholinesterase compared with positive control drug donepezil hydrochloride” value is listed as “relative low activity”. Moreover, in assay [2] (read-out: IC50 (nM), inhibition activity on acetylcholinesterase), the IC50 was above 2000 nM.

As to `CC1(C)c2cc3c(cc2C(=O)N1CCC1CCN(Cc2ccc(F)cc2)CC1)OCO3` [Compound I-16, 6-[2-[1-[(4-fluorophenyl)methyl]-4-piperidyl]ethyl]-7,7-dimethyl-[1,3]dioxolo[4,5-f]isoindol-5-one], in assay [2], the “potency on acetylcholinesterase compared with positive control drug donepezil hydrochloride” value was “relative low activity”. Also, the IC50 in assay [2] (setting [3]) was above 2000 nM.

On to `O=C1c2cc3c(cc2CN1CCC1CCN(Cc2ccccc2F)CC1)OCO3` [Compound I-6, 6-[2-[1-[(2-fluorophenyl)methyl]-4-piperidyl]ethyl]-5H-[1,3]dioxolo[4,5-f]isoindol-7-one], for which, in assay [2], the “potency on acetylcholinesterase compared with positive control drug donepezil hydrochloride” value is “even lower”. Also, the IC50 in assay [2] (setting [3]) came to 483 nM.

For the compound `O=C1c2cc3c(cc2C2(CC2)N1CCC1CCN(Cc2ccccc2F)CC1)OCO3` [Compound I-18, 6-[2-[1-[(2-fluorophenyl)methyl]-4-piperidyl]ethyl]spiro[[1,3]dioxolo[4,5-f]isoindole-7,1′-cyclopropane]-5-one], in assay [1], the “effect on learning and memory disorder” value was “can improve the learning and memory disorder of the animals induced by scopolamine”. Moreover, in assay [1] (Table 2, 5 mg/kg intragastric), the “latent period day 1” value stood at 60 ± 0 s, the “latent period day 2” value is reported as 60 ± 0 s, the “latent period day 3” value is recorded as 53.1 ± 10.4 s and the “latent period day 4” value amounted to 56.9 ± 8.2 s. Also, in assay [1] (Table 2, 5 mg/kg intragastric), the “latent period day 5” value is 56.8 ± 8.6 s and the “times of crossing platform” value came to 0.5 ± 0.6. Also, in assay [1] (Table 3, 5 mg/kg intragastric), the “latent period day 1” value is 55.0 ± 10.3 s, the “latent period day 2” value was determined as 55.9 ± 9.0 s, the “latent period day 3” value worked out at 60 ± 0 s and the “latent period day 4” value was determined as 51.8 ± 15.6 s. In assay [1] (Table 3, 5 mg/kg intragastric), the “latent period day 5” value was 35.6 ± 15.4 s and the “times of crossing platform” value is 1.5 ± 1.7. In assay [1] (Table 3, 10 mg/kg intragastric), the “latent period day 1” value was 56.0 ± 9.9 s, the “latent period day 2” value is 52.4 ± 12.4 s, the “latent period day 3” value is listed as 60 ± 0 s and the “latent period day 4” value worked out at 48.8 ± 15.4 s. Also, in assay [1] (Table 3, 10 mg/kg intragastric), the “latent period day 5” value is reported as 49.2 ± 15.9 s and the “times of crossing platform” value was 1.5 ± 1.2. Further, the “potency on acetylcholinesterase compared with positive control drug donepezil hydrochloride” value in assay [2] is given as “slightly lower potency than the positive control drug”. The IC50 in assay [2] (setting [3]) came to 154 nM.

`O=C1c2cc3c(cc2CN1CCC1CCN(Cc2cccc(F)c2)CC1)OCO3` [Compound I-7, 6-[2-[1-[(3-fluorophenyl)methyl]-4-piperidyl]ethyl]-5H-[1,3]dioxolo[4,5-f]isoindol-7-one]: the “potency on acetylcholinesterase compared with positive control drug donepezil hydrochloride” value in assay [2] is given as “even lower”. Moreover, the half-inhibitory concentration (IC50) in assay [2] (setting [3]) was 486 nM.

On to `O=C1c2cc3c(cc2C2(CC2)N1CCC1CCN(Cc2ccccc2C(F)(F)F)CC1)OCO3` [Compound I-22, 6-[2-[1-[[2-(trifluoromethyl)phenyl]methyl]-4-piperidyl]ethyl]spiro[[1,3]dioxolo[4,5-f]isoindole-7,1′-cyclopropane]-5-one], for which, in assay [2], the “potency on acetylcholinesterase compared with positive control drug donepezil hydrochloride” value is “relative low activity”. Besides, the 50% inhibitory concentration (IC50) in assay [2] (setting [3]) was above 2000 nM.
